Laboratory results as given in article PMC9016025, “Translational imaging of the fibroblast activation protein (FAP) using the new ligand [^68Ga]Ga-OncoFAP-DOTAGA” (European Journal of Nuclear Medicine and Molecular Imaging, 2021).

Experiments:
Type in all cases: biochemical
[1] = target: T1, dipeptidyl peptidase 8 (DPP8) (Homo sapiens, UniProt Q6V1X1); assay: In vitro fluorescence enzymatic inhibition assay, DPP8; details: for IC50: recombinant DPP8, fluorogenic substrate
T1 construct: purchased BPS Bioscience 80080
Experimental: (§1) Enzymatic inhibition activity and selectivity of OncoFAP derivatives was assessed by employing commercially available in vitro fluorescence assays for FAP, dipeptidyl peptidase 8 (DDP8), and prolyl oligo peptidase (POP) (BPS Bioscience, San Diego, CA, US). The fluorogenic substrate (Fluorogenic DPP substrate 1, Ala-Pro-AMC dipeptide, AMC: 7-amino-4-methylcumaryl) was incubated together with recombinant FAP, DDP, or POP/PREP in the presence or absence of test compounds. The enzymatic activity was correlated with the amount of cleaved fluorescent product measured by fluorescence spectroscopy. IC50 of each test compound was determined from the curves obtained by plotting fluorescence intensities at different concentrations of the inhibitor.
(§2) The synthetic fluorometric DPP substrate 1 (BPS Bioscience, San Diego, CA, USA) Catalog no. […] Reaction rates were measured from the initial 30 min of the reaction profile where product release was linear with time and plotted as a function of inhibitor dose.

[2] = target: T2, prolyl oligo peptidase (POP) (Homo sapiens, UniProt P48147); assay: In vitro fluorescence enzymatic inhibition assay, POP; details: for selectivity for FAP compared to POP: from IC50 values; for IC50: recombinant POP/PREP
T2 construct: purchased BPS Bioscience 80105
T2 sequence (P48147 1-710): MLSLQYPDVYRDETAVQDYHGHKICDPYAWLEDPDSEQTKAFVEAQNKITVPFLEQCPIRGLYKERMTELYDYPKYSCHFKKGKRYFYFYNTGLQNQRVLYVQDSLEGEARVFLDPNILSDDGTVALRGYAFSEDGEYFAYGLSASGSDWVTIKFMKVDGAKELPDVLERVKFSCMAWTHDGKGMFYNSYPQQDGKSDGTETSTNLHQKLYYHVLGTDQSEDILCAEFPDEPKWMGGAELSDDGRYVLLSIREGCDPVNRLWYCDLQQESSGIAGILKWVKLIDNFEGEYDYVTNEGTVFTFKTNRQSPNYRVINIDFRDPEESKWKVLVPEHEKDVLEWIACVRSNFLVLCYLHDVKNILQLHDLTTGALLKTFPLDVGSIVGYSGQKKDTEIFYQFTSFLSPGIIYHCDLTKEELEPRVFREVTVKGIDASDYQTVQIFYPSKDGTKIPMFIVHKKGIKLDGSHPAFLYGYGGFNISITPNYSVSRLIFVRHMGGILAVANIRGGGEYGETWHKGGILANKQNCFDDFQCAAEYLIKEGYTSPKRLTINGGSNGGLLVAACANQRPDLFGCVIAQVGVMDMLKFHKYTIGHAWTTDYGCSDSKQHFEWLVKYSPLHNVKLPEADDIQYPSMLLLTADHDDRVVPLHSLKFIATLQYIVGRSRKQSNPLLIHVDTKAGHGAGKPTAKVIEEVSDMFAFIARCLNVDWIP
Experimental: as §1, §2

human FAP = target: T3, human FAP (Homo sapiens, UniProt Q12884); assay: In vitro fluorescence enzymatic inhibition assay, FAP; details: for IC50: recombinant FAP, fluorogenic DPP substrate 1, n = 3
T3 construct: purchased BPS Bioscience 80100
T3 sequence (Q12884 1-760): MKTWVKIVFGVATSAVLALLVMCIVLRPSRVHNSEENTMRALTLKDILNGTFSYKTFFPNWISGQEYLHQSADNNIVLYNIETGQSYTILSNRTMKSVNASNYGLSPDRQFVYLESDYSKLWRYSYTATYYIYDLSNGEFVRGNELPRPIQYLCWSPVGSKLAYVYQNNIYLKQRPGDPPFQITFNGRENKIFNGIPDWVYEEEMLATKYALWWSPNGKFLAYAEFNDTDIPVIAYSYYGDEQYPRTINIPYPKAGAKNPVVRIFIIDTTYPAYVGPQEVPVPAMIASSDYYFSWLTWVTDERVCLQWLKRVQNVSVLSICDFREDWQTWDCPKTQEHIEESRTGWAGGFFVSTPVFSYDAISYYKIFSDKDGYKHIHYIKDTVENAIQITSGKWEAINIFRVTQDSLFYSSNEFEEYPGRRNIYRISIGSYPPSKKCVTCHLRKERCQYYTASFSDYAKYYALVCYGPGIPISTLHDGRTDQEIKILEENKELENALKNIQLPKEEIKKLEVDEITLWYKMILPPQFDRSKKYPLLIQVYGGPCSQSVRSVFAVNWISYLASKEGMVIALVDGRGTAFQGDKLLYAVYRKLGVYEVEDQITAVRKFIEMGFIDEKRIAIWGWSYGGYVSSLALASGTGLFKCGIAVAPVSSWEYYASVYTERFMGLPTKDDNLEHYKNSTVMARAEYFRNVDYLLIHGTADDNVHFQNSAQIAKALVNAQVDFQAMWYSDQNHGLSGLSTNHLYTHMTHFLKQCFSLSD
Experimental: as §1, §2

T1 sequence (Q6V1X1 whole entry): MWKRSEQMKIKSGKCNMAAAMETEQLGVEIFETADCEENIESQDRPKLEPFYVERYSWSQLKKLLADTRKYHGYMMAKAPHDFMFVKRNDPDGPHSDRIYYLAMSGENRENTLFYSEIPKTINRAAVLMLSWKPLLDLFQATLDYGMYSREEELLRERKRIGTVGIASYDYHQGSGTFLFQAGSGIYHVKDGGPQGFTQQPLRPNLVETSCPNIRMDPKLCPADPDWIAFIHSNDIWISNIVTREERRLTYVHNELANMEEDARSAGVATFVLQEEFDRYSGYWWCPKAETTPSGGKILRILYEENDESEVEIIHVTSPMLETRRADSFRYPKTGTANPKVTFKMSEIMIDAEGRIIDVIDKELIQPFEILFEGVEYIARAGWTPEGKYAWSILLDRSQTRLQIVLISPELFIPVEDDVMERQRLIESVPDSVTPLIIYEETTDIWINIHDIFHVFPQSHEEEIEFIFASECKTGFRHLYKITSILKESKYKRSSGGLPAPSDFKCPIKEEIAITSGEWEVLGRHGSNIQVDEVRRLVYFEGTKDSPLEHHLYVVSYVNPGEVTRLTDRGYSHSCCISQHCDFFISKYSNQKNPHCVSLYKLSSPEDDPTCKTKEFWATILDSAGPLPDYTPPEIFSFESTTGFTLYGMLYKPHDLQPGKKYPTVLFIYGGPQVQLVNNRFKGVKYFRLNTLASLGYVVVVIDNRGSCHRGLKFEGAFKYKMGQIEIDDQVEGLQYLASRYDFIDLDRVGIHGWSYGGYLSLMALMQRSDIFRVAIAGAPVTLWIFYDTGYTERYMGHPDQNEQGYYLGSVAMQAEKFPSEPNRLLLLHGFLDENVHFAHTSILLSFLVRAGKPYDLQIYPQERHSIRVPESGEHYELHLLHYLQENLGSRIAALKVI

selectivity for FAP compared to DPP8 ([1]; from IC50 values) | IC50 [1] | selectivity for FAP compared to POP [2] | IC50 [2] | IC50 (human FAP) | IC50 ([2]; fluorogenic substrate) | superior FAP binding potency compared to ^natGa-FAPI-46 (human FAP; from IC50 values) | Substance
> 1000 fold | 10200 ± 3000 nM | > 1000 fold | > 10000 nM | 8.37 ± 0.71 nM | – | – | [^natGa]Ga-FAPI-46 [^natGa-FAPI-46]
– | 6870 ± 111 nM | 96 fold | – | 0.51 ± 0.11 nM | 49.2 ± 6.3 nM | ca. 16 fold | [^natGa]Ga-OncoFAP-DOTAGA [^natGa-OncoFAP]
